Source: US11879145B2, “Reagents and methods for replication, transcription, and translation in semi-synthetic organisms” (The Scripps Research Institute, priority 2019, dated 2024)
Several values for one entry are separate records, joined by “and”; a condition that tells them apart may be missing. Identical values can stand only once. Entries after “also recorded” stand apart in the source; their conditions may differ.

Key:
tRNA^Pyl(GYT) gene = experiment: UBP retention in the tRNA gene by streptavidin gel shift assay (in vivo screen of dXTPs); assay type: cell-based, E. coli; conditions: dTPT3TP 10 μM, strain YZ3
Method: (§1) These plasmids were used to transform E. coli expressing the nucleoside triphosphate transporter PtNTT2 (strain YZ38) and harboring a plasmid encoding Mb PylRS. After transformation, colonies were selected and grown to an OD600˜1.0 in liquid media supplemented with dTPT3TP (10 μM) and one of seven different dXTPs (FIG. 2) added at varying concentrations (150 μM, 10 μM, or 5 μM). Cells were then diluted into fresh expression media containing the same unnatural deoxyribonucleotides as well as NaMTP (250 μM), TPT3TP (30 μM), and AzK (10 mM). After a brief incubation, T7 RNAP and tRNAPyl(GYT) expression was induced by the addition of isopropyl-β-d-thiogalactoside (IPTG, 1 mM). After an additional 1 h of incubation, the expression of sfGFP^151(AXC) was initiated by the addition of anhydrotetracycline (aTc, 100 ng/mL).
(§2) Analysis of PCR products. After 2.5 h, plasmids were isolated and then the genes of interest were independently PCR amplified using d5SICSTP and a biotinylated analog of dNaMTP7. The resulting PCR product was analyzed via a gel mobility shift assay using streptavidin to quantify the UBP retained as a percent shift of the total amplified product (hereafter referred to as the streptavidin gel shift assay) (FIG. 3A and FIG. 3B).
In vivo Translation Screen of dXTPs. An overnight culture of the SSO strain YZ3 carrying the pGEX-MbPylRS TetR plasmid was grown in 2×YT supplemented with 50 mM potassium phosphate, […] chloramphenicol and 100 μg/mL carbenicillin (herein referred to in this section as “media”), then diluted back to an OD600 of 0.03 in the same media and grown to an OD600 of 0.4 to 0.6. The culture was then chilled with shaking over ice-water for 15 minutes then pelleted by centrifugation at 3,200×g for 10 min. Cells were then resuspended and washed with ice-cold ddH2O twice then resuspended in ice-cold ddH2O to an OD600 of 55-65. […] The culture was monitored for cell growth (Envision 2103 Multilabel Plate Reader with a 590/20 nm filter) and then collected at an OD600˜1.0. […]

sfGFP^151(AXC) gene = experiment: UBP retention in the sfGFP gene by streptavidin gel shift assay (in vivo screen of dXTPs); assay type: cell-based, E. coli; conditions: dTPT3TP 10 μM, strain YZ3
Method: as §1, §2
In vivo Translation Screen of dXTPs. An overnight culture of the SSO strain YZ3 carrying the pGEX-MbPylRS TetR plasmid was grown in 2×YT supplemented with 50 mM potassium phosphate, […] chloramphenicol and 100 μg/mL carbenicillin (herein referred to in this section as “media”), then diluted back to an OD600 of 0.03 in the same media and grown to an OD600 of 0.4 to 0.6. The culture was then chilled with shaking over ice-water for 15 minutes then pelleted by centrifugation at 3,200×g for 10 min. Cells were then resuspended and washed with ice-cold ddH2O twice then resuspended in ice-cold ddH2O to an OD600 of 55-65. The electrocompetent cells (50 μL) and 1 ng of Golden Gate assembled plasmid with the UBP within the sfGFP and tRNAPyl genes (see Golden Gate Assembly of Plasmids) were transferred to a pre-chilled electroporation cuvette (0.2-cm-gap), then electroporated (Gene Pulser II; Bio-Rad) according to manufacturer's recommendations (voltage […], capacitor 2.5 μF, resistor 200Ω), and then immediately diluted with 950 μL of media. An aliquot (40 μL) of the transformation was then diluted five-fold in media supplemented with dNaMTP (150 μM) and dTPT3TP (10 μM) for a final volume of 200 μL then allowed to recover for 1 h shaking at 37° C. […] The culture was monitored for cell growth (Envision 2103 Multilabel Plate Reader with a 590/20 nm filter) and then collected at an OD600˜1.0. […]

E. coli strain YZ3 = experiment: Cell growth / viability in the in vivo screen of dXTPs; assay type: cell-based; conditions: dXTP 5 μM
Method: as §1, with “After an additional 1 h of incubation, the expression of sfGFP^151(AXC) was initiated by the addition of anhydrotetracycline (aTc, 100 ng/mL).” left out
Analysis of reporter protein production. To characterize the amount of protein produced, bulk culture fluorescence normalized to cell growth was measured 2.5 h after the induction of protein expression (FIG. 3C). […] While similar at high concentrations, at lower concentrations the use of each dXTP analog results in a greater AzK-dependent increase in fluorescence than does the use of dNaMTP.
Ten-fold dilutions of the glycerol stock were re-plated onto solid growth media supplemented with dNaMTP (150 μM), dTPT3TP (10 μM), and 2% w/v agar, then grown at 37° C. overnight. […] From this point on, cells were monitored for growth and fluorescence. […]

sfGFP^151(AXC) [1] = experiment: Fidelity of AzK incorporation into sfGFP, DBCO-TAMRA gel shift / western blot (in vivo screen of dXTPs); assay type: cell-based, E. coli
Method: Analysis of reporter protein fidelity. To directly assess the fidelity of unnatural protein production, cells were harvested 2.5 h after the induction of protein expression and the sfGFP produced was purified and subjected to a strain-promoted azide-alkyne cycloaddition reaction with dibenzocyclooctyne (DBCO) linked to a TAMRA dye by four PEG units. In addition to tagging the proteins containing the ncAA with a detectable fluorophore, conjugation produces a shift in electrophoretic migration, allowing quantification of protein containing AzK as a percentage of the total protein produced (i.e. fidelity of ncAA incorporation; FIG. 3D).
Ten-fold dilutions of the glycerol stock were re-plated onto solid growth media supplemented with dNaMTP (150 μM), dTPT3TP (10 μM), and 2% w/v agar, then grown at 37° C. overnight. Single colonies were picked and grown in growth media (300 μL) supplemented with corresponding dXTP (various concentrations), and dTPT3TP (10 μM), then monitored for cell growth and collected at an OD600˜1.0. Once all samples were collected, samples were left on ice overnight. The samples were then re-diluted to OD600˜0.1, to a final volume of 300 μL and provided with the corresponding dXTP (various concentrations), and dTPT3TP (10 μM). The remaining culture not used was pelleted and stored at −80° C. for subsequent plasmid isolation using the ZR Plasmid Prep Kit (Zymo Research) to determine UBP retention. When cultures reached an OD600˜0.4-0.6, they were provided with NaMTP (250 μM) and TPT3TP (30 μM), and AzK (10 mM) (or ddH2O for cultures grown in the absence of AzK). Samples were shielded from light after addition of AzK to prevent photodegradation. These samples were then grown at 37° C. for 20 min before adding 1 mM IPTG and grown at 37° C. for an additional 1 h to induce T7 RNAP and transcription of tRNAPyl and PylRS. From this point on, cells were monitored for growth and fluorescence. Expression of sfGFP was then induced with anhydrotetracycline (100 ng/mL).
Affinity Purification of sfGFP. Cell pellets collected from translation experiments were resuspended in BugBuster (100 μL 1×, EMD Millipore) and shaken at room temperature for 15 min. The cell lysate was then diluted with Buffer W (380 μL; 50 mM HEPES pH 8, 150 mM NaCl, 1 mM EDTA) and magnetic Strep-Tactin beads (20 μL, 5% (v/v) suspension of MagStrep ‘type3’ XT beads, IBA Lifesciences) equilibrated in Buffer W, were added. The mixture was gently inverted at 4° C. for 30 min. […] Purified proteins were quantified using the Qubit Protein Assay Kit (Thermo Fisher Scientific). […]

sfGFP^151(AXC) [2] = experiment: Bulk culture sfGFP fluorescence normalized to cell growth (in vivo screen of dXTPs); assay type: cell-based, E. coli; conditions: for sfGFP fluorescence normalized to cell growth: AzK added
Method: as §1
Analysis of reporter protein production. To characterize the amount of protein produced, bulk culture fluorescence normalized to cell growth was measured 2.5 h after the induction of protein expression (FIG. 3C). […] Cells growth was not observed when provided with only 5 μM dNaMTP. While similar at high concentrations, at lower concentrations the use of each dXTP analog results in a greater AzK-dependent increase in fluorescence than does the use of dNaMTP.
Ten-fold dilutions of the glycerol stock were re-plated onto solid growth media supplemented with dNaMTP (150 μM), dTPT3TP (10 μM), and 2% w/v agar, then grown at 37° C. overnight. Single colonies were picked and grown in growth media (300 μL) supplemented with corresponding dXTP (various concentrations), and dTPT3TP (10 μM), then monitored for cell growth and collected at an OD600˜1.0. Once all samples were collected, samples were left on ice overnight. The samples were then re-diluted to OD600˜0.1, to a final volume of 300 μL and provided with the corresponding dXTP (various concentrations), and dTPT3TP (10 μM). […] From this point on, cells were monitored for growth and fluorescence. […]

[3] = dXTP 5 μM (lowest concentration)

| SMILES | UBP retention in the tRNA^Pyl(GYT) gene (tRNA^Pyl(GYT) gene; dXTP 10 μM) [%] | UBP retention in the sfGFP^151(AXC) gene (sfGFP^151(AXC) gene; dXTP 10 μM) [%] | UBP retention in the sfGFP^151(AXC) gene (sfGFP^151(AXC) gene; dXTP 150 μM) [%] | Cell growth / survival (E. coli strain YZ3) | Fidelity of ncAA incorporation (protein shift) (sfGFP^151(AXC) [1]; dXTP 10 μM) | sfGFP fluorescence normalized to cell growth (sfGFP^151(AXC) [2]; dXTP 150 or 10 μM) | UBP retention in the tRNA^Pyl(GYT) gene (tRNA^Pyl(GYT) gene; [3]) [%] | UBP retention in the sfGFP^151(AXC) gene (sfGFP^151(AXC) gene; [3]) | Fidelity of ncAA incorporation (protein shift) (sfGFP^151(AXC) [1]; dXTP 5 μM) | Quantity of pure unnatural protein produced (sfGFP^151(AXC) [1]; especially at lower concentrations) | sfGFP fluorescence normalized to cell growth (sfGFP^151(AXC) [2]; dXTP 5 μM) | AzK-dependent increase in fluorescence (sfGFP^151(AXC) [2]; lower dXTP concentrations, compared with dNaMTP) |
| --- | --- | --- | --- | --- | --- | --- | --- | --- | --- | --- | --- | --- |
| COc1cc2ccccc2cc1[C@H]1C[C@H](O)[C@@H](COP(=O)(O)OP(=O)(O)OP(=O)(O)O)O1 [dNaMTP] | 71 | 73 | 99 | not observed; also recorded: did not survive | dropped precipitously | significantly less fluorescence at 10 μM than at 150 μM | – | – | – | – | – | – |
| COc1cc(C)c(F)cc1[C@H]1C[C@H](O)[C@@H](COP(=O)(O)OP(=O)(O)OP(=O)(O)O)O1 [d5FMTP] | 82 | 96 | – | – | remained high | – | 83 | 94% and ~93% | remained similar to that observed at 10 μM | greatest quantity of pure unnatural protein | remained the same | largest AzK-dependent increase in fluorescence |
